Assay results taken from PubChem BioAssay AID1963828 (Molecular Pharmacology Branch, DTP, NCI, 2024).
pIC50: −log10 of the molar value.

Test system: 991263-137-R1-J2-PDC complex spheroid viability
Test: Anticancer human tumor 991263-137-R1-J2-PDC patient-derived colon adenocarcinoma cell line growth inhibition [POLQ]
Details: for pIC50: curve of first compound; for viability, T/C: stronger effect = lower value
Description: Multicellular complex tumor spheroid response to Polymerase (POL) inhibitors (novobiocin, ART-558, RP6685) in combination with a variety of drugs and investigational agents in selected tumor cell lines
The POL inhibitors (novobiocin, ART-558, and RP6685) were evaluated both individually and in combination with standard of care and investigational anticancer small molecules within a complex spheroid model of solid tumors. . Complex spheroids include a stromal component modeled by human endothelial cells (HUVEC) and fibroblasts modeled by human mesenchymal stem cells (MSCs). The concentration ranges selected for each drug and investigational agent were based upon clinically achievable concentrations if the clinical Cmax of the agent was known.
Compounds. The drugs and investigational agents: novobiocin (NSC847541), ART-558 (NSC835418), RP-6685 (NSC848927), peposertib (NSC802822), ceralasertib (NSC780249), elimusertib (NSC800525), camonsertib (NSC841442), AZD-1390 (NSC803789), olaparib (NSC753686), talazoparib (NSC767125), rucaparib (NSC756644), sotorasib (NSC818433), MRTX-1133 (NSC836407), SN-38 (NSC673596), topotecan (NSC609699), epotoside (NSC141540), doxorubicin (NSC123127), gemcitabine (NSC613327), 5-fluorouracil (NSC19893), paclitaxel (NSC125973), vemurafenib (NSC761431), MSA-2 (NSC828583), SN-011 (NSC837082), adavosertib (NSC754352), prexasertib (NSC758257), carboplatin (NSC241240) and oxaliplatin (NSC266046), were obtained from the National Cancer Institute (NCI) Developmental Therapeutics Program Chemical Repository (21). The FDA-approved anticancer drug set is available from the Developmental Therapeutics Program at https://dtp.cancer.gov/organization/dscb/obtaining/. […] The stock solutions were prepared in dimethyl sulfoxide (DMSO, Sigma-Aldrich, St. Louis, MO, cat. D2650), except for the platinum compounds which were prepared in saline (Quality Biological, Gaithersburg, MD, cat. 114-055-101), at 800-fold the tested concentration and stored at -70 degrees C prior to their use. All drugs and investigational agents were tested over a range starting from a high concentration at or near the clinical Cmax and decreasing in half-log increments. If the clinical Cmax for an agent had not been determined, the highest concentration tested was 10 microM, except for SN-38, which was tested at a high concentration of 1 microM.
Cell Culture. All cells were maintained in an incubator at 37 degrees C and 5% CO2 with 95% humidity. The PDC lines were cultured according to standard operating procedures established by the NCI PDMR (https://pdmr.cancer.gov). Table 3 of the manuscript, lists the cell lines along with the number of the three cell types plated to form the mct-spheroids and media for tumor cell growth. After thawing, all PDC lines, except 997537-175-T-J1-PDC and 415267-285-R-J2-PDC, were cultured in Matrigel-coated flasks prepared with a working solution of 1X Ham's F-12 nutrient mix, without supplementation (Thermo Fisher Scientific, cat. 11765054), 100 U/mL penicillin-streptomycin (Thermo Fisher Scientific, cat. 15140122), and 2.5% Matrigel (Corning Inc., Corning, NY, cat. 354248) for the first three passages. The two PDC lines 997537-175-T-J1-PDC and 415267-285-R-J2-PDC were cultured on uncoated flasks. The 857933-349-R-J2-PDC line was cultured in 6C/Colon 1B media containing advanced DMEM/F-12 (Thermo Fisher Scientific, cat. 12634028), 10 mM HEPES (Thermo Fisher Scientific, cat. 15630080), 1X GlutaMAX supplement (Thermo Fisher Scientific, cat. 35050061), 0.1 mg/mL primocin (InvivoGen, San Diego, CA, cat. ant-pm-2), 10% defined fetal bovine serum, heat inactivated (HyClone Laboratories Inc., Logan, UT, cat. SH30070.03HI), 50% L-WRN conditioned media (ATCC, cat. CRL-3276), 1.25 mM N-Acetyl-L-cysteine (Sigma-Aldrich, cat. A9165), 10 mM nicotinamide (Sigma-Aldrich, cat. N0636), 1X B-27 supplement (Thermo Fisher Scientific, cat. 17504044), 1X N-2 supplement (Thermo Fisher Scientific, cat. […]
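Also: spheroids exposed to compounds for 7 days before readout.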
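For viability, T/C in this document: 100% = DMSO vehicle control viability.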

## CC(=O)O[C@H]1C(=O)[C@@]2(C)[C@H]([C@H](OC(=O)c3ccccc3)[C@]3(O)C[C@H](OC(=O)[C@H](O)[C@@H](NC(=O)c4ccccc4)c4ccccc4)C(C)=C1C3(C)C)[C@]1(OC(C)=O)CO[C@@H]1C[C@@H]2O + Nc1ccc(C#CCN(C(=O)Cc2ncc(C(F)(F)F)cc2C(F)(F)F)c2ccc(F)cc2)nn1
Second compound 0.0316 µM
  pIC50: < 5.52
Second compound 0.1 µM
  pIC50: < 5.52
Second compound 0.316 µM
  pIC50: 5.60
Second compound 1 µM
  pIC50: < 5.52
Second compound 3.16 µM
  pIC50: < 5.52
Second compound 10 µM
  pIC50: < 5.52
Second compound 0.0316 µM, first compound 0.00949 µM
  viability, T/C: 98.6%
Second compound 0.0316 µM, first compound 0.03 µM
  viability, T/C: 89.7%
Second compound 0.0316 µM, first compound 0.0949 µM
  viability, T/C: 84.9%
Second compound 0.0316 µM, first compound 0.3 µM
  viability, T/C: 77.8%
Second compound 0.0316 µM, first compound 0.949 µM
  viability, T/C: 55.3%
Second compound 0.0316 µM, first compound 3 µM
  viability, T/C: 56.6%
Second compound 0.1 µM, first compound 0.00949 µM
  viability, T/C: 93.9%
Second compound 0.1 µM, first compound 0.03 µM
  viability, T/C: 96.5%
Second compound 0.1 µM, first compound 0.0949 µM
  viability, T/C: 87.9%
Second compound 0.1 µM, first compound 0.3 µM
  viability, T/C: 85.8%
Second compound 0.1 µM, first compound 0.949 µM
  viability, T/C: 55.1%
Second compound 0.1 µM, first compound 3 µM
  viability, T/C: 50.9%
Second compound 0.316 µM, first compound 0.00949 µM
  viability, T/C: 93.9%
Second compound 0.316 µM, first compound 0.03 µM
  viability, T/C: 95.6%
Second compound 0.316 µM, first compound 0.0949 µM
  viability, T/C: 85.3%
Second compound 0.316 µM, first compound 0.3 µM
  viability, T/C: 80%
Second compound 0.316 µM, first compound 0.949 µM
  viability, T/C: 58%
Second compound 0.316 µM, first compound 3 µM
  viability, T/C: 48.9%
Second compound 1 µM, first compound 0.00949 µM
  viability, T/C: 92.5%
Second compound 1 µM, first compound 0.03 µM
  viability, T/C: 96.9%
Second compound 1 µM, first compound 0.0949 µM
  viability, T/C: 98%
Second compound 1 µM, first compound 0.3 µM
  viability, T/C: 66.4%
Second compound 1 µM, first compound 0.949 µM
  viability, T/C: 57.7%
Second compound 1 µM, first compound 3 µM
  viability, T/C: 51.7%
Second compound 3.16 µM, first compound 0.00949 µM
  viability, T/C: 90.2%
Second compound 3.16 µM, first compound 0.03 µM
  viability, T/C: 87.1%
Second compound 3.16 µM, first compound 0.0949 µM
  viability, T/C: 68.7%
Second compound 3.16 µM, first compound 0.3 µM
  viability, T/C: 60.6%
Second compound 3.16 µM, first compound 0.949 µM
  viability, T/C: 51.4%
Second compound 3.16 µM, first compound 3 µM
  viability, T/C: 50.6%
Second compound 10 µM, first compound 0.00949 µM
  viability, T/C: 84.6%
Second compound 10 µM, first compound 0.03 µM
  viability, T/C: 72%
Second compound 10 µM, first compound 0.0949 µM
  viability, T/C: 53.8%
Second compound 10 µM, first compound 0.3 µM
  viability, T/C: 58.1%
Second compound 10 µM, first compound 0.949 µM
  viability, T/C: 49.5%
Second compound 10 µM, first compound 3 µM
  viability, T/C: 50.2%

## COc1cc(C2c3cc4c(cc3C(OC3OC5COC(C)OC5C(O)C3O)C3COC(=O)C23)OCO4)cc(OC)c1O (centres undefined) + Nc1ccc(C#CCN(C(=O)Cc2ncc(C(F)(F)F)cc2C(F)(F)F)c2ccc(F)cc2)nn1
Second compound 0.0316 µM
  pIC50: < 5.00
Second compound 0.1 µM
  pIC50: < 5.00
Second compound 0.316 µM
  pIC50: < 5.00
Second compound 1 µM
  pIC50: < 5.00
Second compound 3.16 µM
  pIC50: < 5.00
Second compound 10 µM
  pIC50: < 5.00
Second compound 0.0316 µM, first compound 0.0316 µM
  viability, T/C: 106%
Second compound 0.0316 µM, first compound 0.1 µM
  viability, T/C: 94.4%
Second compound 0.0316 µM, first compound 0.316 µM
  viability, T/C: 108%
Second compound 0.0316 µM, first compound 1 µM
  viability, T/C: 94.4%
Second compound 0.0316 µM, first compound 3.16 µM
  viability, T/C: 93.2%
Second compound 0.0316 µM, first compound 10 µM
  viability, T/C: 74.4%
Second compound 0.1 µM, first compound 0.0316 µM
  viability, T/C: 115%
Second compound 0.1 µM, first compound 0.1 µM
  viability, T/C: 99.8%
Second compound 0.1 µM, first compound 0.316 µM
  viability, T/C: 102%
Second compound 0.1 µM, first compound 1 µM
  viability, T/C: 98.9%
Second compound 0.1 µM, first compound 3.16 µM
  viability, T/C: 91%
Second compound 0.1 µM, first compound 10 µM
  viability, T/C: 74.5%
Second compound 0.316 µM, first compound 0.0316 µM
  viability, T/C: 97.9%
Second compound 0.316 µM, first compound 0.1 µM
  viability, T/C: 122%
Second compound 0.316 µM, first compound 0.316 µM
  viability, T/C: 107%
Second compound 0.316 µM, first compound 1 µM
  viability, T/C: 92.4%
Second compound 0.316 µM, first compound 3.16 µM
  viability, T/C: 93.5%
Second compound 0.316 µM, first compound 10 µM
  viability, T/C: 72.2%
Second compound 1 µM, first compound 0.0316 µM
  viability, T/C: 100%
Second compound 1 µM, first compound 0.1 µM
  viability, T/C: 104%
Second compound 1 µM, first compound 0.316 µM
  viability, T/C: 97.8%
Second compound 1 µM, first compound 1 µM
  viability, T/C: 96.4%
Second compound 1 µM, first compound 3.16 µM
  viability, T/C: 99.9%
Second compound 1 µM, first compound 10 µM
  viability, T/C: 74.9%
Second compound 3.16 µM, first compound 0.0316 µM
  viability, T/C: 96.3%
Second compound 3.16 µM, first compound 0.1 µM
  viability, T/C: 96.8%
Second compound 3.16 µM, first compound 0.316 µM
  viability, T/C: 103%
Second compound 3.16 µM, first compound 1 µM
  viability, T/C: 86.7%
Second compound 3.16 µM, first compound 3.16 µM
  viability, T/C: 72.1%
Second compound 3.16 µM, first compound 10 µM
  viability, T/C: 66.1%
Second compound 10 µM, first compound 0.0316 µM
  viability, T/C: 89.6%
Second compound 10 µM, first compound 0.1 µM
  viability, T/C: 96.1%
Second compound 10 µM, first compound 0.316 µM
  viability, T/C: 88.7%
Second compound 10 µM, first compound 1 µM
  viability, T/C: 68.8%
Second compound 10 µM, first compound 3.16 µM
  viability, T/C: 70.9%
Second compound 10 µM, first compound 10 µM
  viability, T/C: 61.5%
